Values joined by “and” are separate entries in the source; they are usually repeats but may differ in a detail not shown here. Equal values may be shown once. Read-outs that look alike come from different tables or passages of the source.
Tests used:
FR-positive KB cells = experiment: Cell uptake and internalization using FR-positive KB cells; type: cell-based
Description: (§1) In order to investigate FR-specific cell uptake and internalization, cell uptake and internalization of 6R-[^18F]1 and 6S-[^18F]1 were carried out using FR-positive KB cells. Cell uptake increased constantly over time for both diastereoisomers resulting in an uptake of about 60% (calculated per 0.3 mg of protein) of total added radioactivity after 3 h of incubation at 37° C. (FIG. 22).

[1] = Metabolite studies / in vivo stability (radio-UPLC of blood plasma, liver, urine); set-up: species or system mice
Description: as §1
The folate radiotracer 6S/6R-[^18F]5 (1:1 ratio, 53.7-52.3 MBq; 0.62-1.15 nmol) were intravenously injected into mice in order to determine the in vivo stability of the tracers. […] Ice-cold methanol containing 10 mg/mL 2-mercaptoethanol and 0.025% (v/v) ammonium hydroxide was added to the blood plasma, homogenized liver and urine in order to precipitate the proteins.^6 After centrifugation, the supernatants of the blood plasma, liver and urine samples were analyzed by radio-UPLC (FIG. 4).

D4 (FR-β) = target: T1, D4 (FR-β) (Homo sapiens, UniProt P14207); experiment: Cell uptake and internalization in FR-β transfected CHO cells (D4); type: cell-based; details: for uptake into D4 cells (in words): D4 (FR-β) cells; for internalized fraction / uptake: D4 cells
T1 construct: expressed in transfected cells; host or cells: CHO cells (D4)
T1 sequence (P14207 17-230): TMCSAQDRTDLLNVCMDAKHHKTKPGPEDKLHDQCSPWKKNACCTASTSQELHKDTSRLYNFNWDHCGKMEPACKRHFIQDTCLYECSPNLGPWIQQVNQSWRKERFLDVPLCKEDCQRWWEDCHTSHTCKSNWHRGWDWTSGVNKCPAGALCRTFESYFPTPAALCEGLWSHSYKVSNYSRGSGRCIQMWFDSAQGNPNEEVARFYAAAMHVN
Description: (§2) The uptake and internalization of the oxidized (^18F-AzaFol) and reduced ^18F-folates (6S-isomer and 6R-isomer of ^18F-5-Me-Aza-THF) in D4 and RT16 cells which express the FR-α and FR-β, […] was studied. Both cell lines were kindly provided by Larry Matherly Wayne State University, Detroit, U.S.; Golani et al., J Med Chem, 2016, 59, 7856.
When using D4 cells that express the FR-β, the uptake of ^18F-AzaFol and the 6S-isomer of the reduced radiotracer reached approximately 70% after 1 h incubation and 80% after 3 h incubation. The internalized fraction of ^18F-AzaFol and the 6S-isomer of the reduced version was 20% and 12%, respectively, after 1 h incubation. These numbers increased slightly when the incubation time was extended to 3 h. […] No change was observed after additional two hours of incubation.

[2] = Distribution coefficient (log D7.4), shake flask method; type: physicochemical; details: n-octanol / phosphate buffer pH 7.4, room temperature
Description: The samples were shaken for 15 min in an overhead shaker and centrifuged for 3 min at 5000 rpm to separate the two phases. Aliquots (50 μL) of both phases were added to Eppendorftubes and then, analyzed in a γ-counter (Wizard, PerkinElmer). The partition coefficient is expressed as the radio between the radioactivity concentrations (cpm/mL) of the n-octanol and the phosphate buffer phase. Values represent the mean±standard deviation of sextuples from two independent experiments.

RT16 (FR-α) = target: T2, RT16 (FR-α) (Homo sapiens, UniProt P15328); experiment: Cell uptake and internalization in FR-α transfected CHO cells (RT16); type: cell-based
T2 construct: expressed in transfected cells; host or cells: CHO cells (RT16)
T2 sequence (P15328 25-234): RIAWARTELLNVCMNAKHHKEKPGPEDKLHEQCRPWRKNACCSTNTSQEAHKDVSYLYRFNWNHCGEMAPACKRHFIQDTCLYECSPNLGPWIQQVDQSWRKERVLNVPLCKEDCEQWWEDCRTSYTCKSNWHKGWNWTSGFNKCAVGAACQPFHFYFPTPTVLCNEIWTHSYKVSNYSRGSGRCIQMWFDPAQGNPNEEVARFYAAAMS
Description: as §2
The internalized fraction of the radiotracers reached 8-10% after 1 h and increased slightly up to 9-12% after 3 h incubation.

KB tumor-bearing mice = experiment: Biodistribution studies in KB tumor-bearing mice
Description: Biodistribution studies were performed 2 weeks after cell inoculation. The ^18F-folate radiotracers (˜5 MBq/mouse) were injected in a volume of 100 μL into a lateral tail vein. The animals were sacrificed at 30 min, 60 min and 90 min after administration of radiotracers. Selected tissues and organs were collected, weighed, and radioactivity was measured using a γ-counter. The results were listed as a percentage of the injected radioactivity per gram of tissue mass (% IA/g), using counts of a defined volume of the original injection solution measured at the same time resulting in decay corrected values.

FR-α = target: T3, FR-α (Homo sapiens, UniProt P15328); experiment: Displacement assay with [^3H]folic acid using KB cells; type: binding; details: for fold lower affinity to the FR-α compared to the oxidized form: versus 3′-aza-2′-fluorofolic acid
T3 construct: endogenous in cells; host or cells: KB cells
T3 sequence (P15328 25-234): as above

[3] = KB tumor-bearing mice, 30 min p.i.
[4] = KB tumor-bearing mice, 30 min p.i., ratio
[5] = KB tumor-bearing mice, 60 min p.i.
[6] = KB tumor-bearing mice, 60 min p.i. & Folic Acid (100 μg 10 min prior)
[7] = KB tumor-bearing mice, 60 min p.i., ratio
[8] = KB tumor-bearing mice, 90 min p.i.
[9] = KB tumor-bearing mice, 90 min p.i., ratio
[10] = KB tumor-bearing mice, 90 min p.i., listed as 6S-form
[11] = KB tumor-bearing mice, 90 min p.i., listed as 6S-isomer
[12] = KB cells, displacement of [^3H]folic acid, n = 3

6S-3′-aza-2′-[^18F]fluoro-5-MTHF [6S-[^18F]1]
internalized activity (FR-positive KB cells; 37° C.): ~16% | cell uptake (% of total added radioactivity) (FR-positive KB cells; 3 h incubation at 37° C., calculated per 0.3 mg of protein): about 60% | in vivo stability ([1]; samples taken p.i.): Only intact parent compounds were found | uptake into D4 cells (in words) (D4 (FR-β)): significant uptake | internalized fraction (D4 (FR-β); 1 h incubation): 12% | uptake (D4 (FR-β); 1 h incubation): approximately 70% | uptake (D4 (FR-β); 3 h incubation): ~80% | logD7.4 [2]: −4.6 ± 0.1 | PET/CT: KB tumor xenograft uptake (KB tumor xenografts; already 1 h p.i.): High KB tumor xenograft uptake | PET/CT: blocking studies, uptake in all FR-positive tissues (KB tumor xenografts; folic acid injected 10 minutes prior to radiotracer): remarkably reduced uptake | uptake into RT16 cells (in words) (RT16 (FR-α)): significant uptake | Biodistribution: Blood (KB tumor-bearing mice; [3]): 1.52 ± 0.31 % IA/g | Biodistribution: Bone (KB tumor-bearing mice; [3]): 1.70 ± 0.13 % IA/g | Biodistribution: Feaces (KB tumor-bearing mice; [3]): 3.71 ± 2.34 % IA/g | Biodistribution: Gall Bladder (KB tumor-bearing mice; [3]): 20.0 ± 9.00 % IA/g | Biodistribution: Heart (KB tumor-bearing mice; [3]): 2.02 ± 0.22 % IA/g | Biodistribution: Intestines (KB tumor-bearing mice; [3]): 2.61 ± 0.65 % IA/g | Biodistribution: KB Tumor (KB tumor-bearing mice; [3]): 11.13±0.90 % IA/g and 11.1 ± 0.90 % IA/g | Biodistribution: Kidneys (KB tumor-bearing mice; [3]): 42.5 ± 2.73 % IA/g | Biodistribution: Liver (KB tumor-bearing mice; [3]): 8.10 ± 1.16 % IA/g | Biodistribution: Lung (KB tumor-bearing mice; [3]): 2.31 ± 0.42 % IA/g | Biodistribution: Muscle (KB tumor-bearing mice; [3]): 1.36 ± 0.25 % IA/g | Biodistribution: Salivary glands (KB tumor-bearing mice; [3]): 13.8 ± 2.06 % IA/g | Biodistribution: Spleen (KB tumor-bearing mice; [3]): 1.90 ± 0.34 % IA/g | Biodistribution: Stomach (KB tumor-bearing mice; [3]): 2.54 ± 0.56 % IA/g | Tu-to-blood (KB tumor-bearing mice; [4]): 7.41 ± 0.96 | Tu-to-liver (KB tumor-bearing mice; [4]): 1.38 ± 0.16 | Biodistribution: Kidneys (KB tumor-bearing mice; KB tumor-bearing mice, 30 min p.i., listed as 6S-form): 42.5±2.73 % IA/g | Biodistribution: Liver (KB tumor-bearing mice; KB tumor-bearing mice, 30 min p.i., listed as 6S-tracer): 8.10±1.16 % IA/g | Biodistribution: Blood (KB tumor-bearing mice; [5]): 1.26 ± 0.08 % IA/g | Biodistribution: Bone (KB tumor-bearing mice; [5]): 1.38 ± 0.14 % IA/g | Biodistribution: Feaces (KB tumor-bearing mice; [5]): 4.85 ± 1.95 % IA/g | Biodistribution: Gall Bladder (KB tumor-bearing mice; [5]): 16.6 ± 8.91 % IA/g | Biodistribution: Heart (KB tumor-bearing mice; [5]): 1.53 ± 0.15 % IA/g | Biodistribution: Intestines (KB tumor-bearing mice; [5]): 2.58 ± 0.42 % IA/g | Biodistribution: KB Tumor (KB tumor-bearing mice; [5]): 14.2 ± 1.91 % IA/g | Biodistribution: Kidneys (KB tumor-bearing mice; [5]): 37.5 ± 3.61 % IA/g | Biodistribution: Liver (KB tumor-bearing mice; [5]): 6.28 ± 0.66 % IA/g | Biodistribution: Lung (KB tumor-bearing mice; [5]): 2.04 ± 0.09 % IA/g | Biodistribution: Muscle (KB tumor-bearing mice; [5]): 1.29 ± 0.14 % IA/g | Biodistribution: Salivary glands (KB tumor-bearing mice; [5]): 13.8 ± 1.28 % IA/g | Biodistribution: Spleen (KB tumor-bearing mice; [5]): 1.57 ± 0.16 % IA/g | Biodistribution: Stomach (KB tumor-bearing mice; [5]): 1.84 ± 0.33 % IA/g | Biodistribution: Blood (KB tumor-bearing mice; [6]): 1.09 ± 0.28 % IA/g | Biodistribution: Bone (KB tumor-bearing mice; [6]): 0.49 ± 0.12 % IA/g | Biodistribution: Feaces (KB tumor-bearing mice; [6]): 8.42 ± 2.10 % IA/g | Biodistribution: Gall Bladder (KB tumor-bearing mice; [6]): 5.87 ± 0.45 % IA/g | Biodistribution: Heart (KB tumor-bearing mice; [6]): 0.50 ± 0.13 % IA/g | Biodistribution: Intestines (KB tumor-bearing mice; [6]): 4.34 ± 0.93 % IA/g | Biodistribution: KB Tumor (KB tumor-bearing mice; [6]): 2.11 ± 0.38 % IA/g | Biodistribution: Kidneys (KB tumor-bearing mice; [6]): 2.28 ± 0.95 % IA/g | Biodistribution: Liver (KB tumor-bearing mice; [6]): 4.76 ± 0.87 % IA/g | Biodistribution: Lung (KB tumor-bearing mice; [6]): 0.84 ± 0.20 % IA/g | Biodistribution: Muscle (KB tumor-bearing mice; [6]): 0.26 ± 0.06 % IA/g | Biodistribution: Salivary glands (KB tumor-bearing mice; [6]): 0.89 ± 0.26 % IA/g | Biodistribution: Spleen (KB tumor-bearing mice; [6]): 0.90 ± 0.24 % IA/g | Biodistribution: Stomach (KB tumor-bearing mice; [6]): 0.73 ± 0.32 % IA/g | Tu-to-blood (KB tumor-bearing mice; [7]): 11.3 ± 1.13 | Tu-to-kidney (KB tumor-bearing mice; [7]): 0.38 ± 0.04 | Tu-to-liver (KB tumor-bearing mice; [7]): 1.87 ± 0.96 | Biodistribution: Blood (KB tumor-bearing mice; [8]): 1.16 ± 0.20 % IA/g | Biodistribution: Bone (KB tumor-bearing mice; [8]): 1.49 ± 0.30 % IA/g | Biodistribution: Feaces (KB tumor-bearing mice; [8]): 4.57 ± 1.98 % IA/g | Biodistribution: Gall Bladder (KB tumor-bearing mice; [8]): 11.4 ± 7.18 % IA/g | Biodistribution: Heart (KB tumor-bearing mice; [8]): 1.48 ± 0.17 % IA/g | Biodistribution: Intestines (KB tumor-bearing mice; [8]): 2.34 ± 0.39 % IA/g | Biodistribution: KB Tumor (KB tumor-bearing mice; [8]): 19.2 ± 4.16 % IA/g | Biodistribution: Kidneys (KB tumor-bearing mice; [8]): 42.3 ± 7.05 % IA/g | Biodistribution: Liver (KB tumor-bearing mice; [8]): 5.86 ± 1.11 % IA/g | Biodistribution: Lung (KB tumor-bearing mice; [8]): 2.08 ± 0.35 % IA/g | Biodistribution: Muscle (KB tumor-bearing mice; [8]): 1.24 ± 0.14 % IA/g | Biodistribution: Salivary glands (KB tumor-bearing mice; [8]): 21.4 ± 4.59 % IA/g | Biodistribution: Spleen (KB tumor-bearing mice; [8]): 1.82 ± 0.49 % IA/g | Biodistribution: Stomach (KB tumor-bearing mice; [8]): 1.69 ± 0.33 % IA/g | Tu-to-blood (KB tumor-bearing mice; [9]): 16.5 ± 0.59 | Tu-to-liver (KB tumor-bearing mice; [9]): 3.30 ± 0.59 | Biodistribution: Kidneys (KB tumor-bearing mice; [10]): 42.3±7.05 % IA/g | Biodistribution: Liver (KB tumor-bearing mice; [10]): 5.86±1.11 % IA/g | Biodistribution: Salivary glands (KB tumor-bearing mice; [10]): 21.4±4.59 % IA/g | Biodistribution: KB Tumor (KB tumor-bearing mice; [11]): 19.2±4.16 % IA/g | Biodistribution: Spleen (KB tumor-bearing mice; [11]): 1.82±0.49 % IA/g | Biodistribution: Liver (KB tumor-bearing mice; KB tumor-bearing mice, 90 min p.i., listed as S-isomer): 5.86±1.11 % IA/g | Specificity of tumor binding (KB tumor-bearing mice; blocking by pre-injection of folic acid): 89% | factor of increase of tumor-to-kidney ratio (KB tumor-bearing mice; from 30 min p.i. to 90 min p.i.): 1.7

Nc1nc2ncc(CNc3ccc(C(=O)N[C@@H](CCC(=O)O)C(=O)O)c([18F])n3)nc2c(=O)[nH]1 [3′-aza-2′-[^18F]fluorofolic acid, reference compound]
in vivo stability (radiometabolites) ([1]; comparison tracer): radiometabolites in the liver were detected | uptake into D4 cells (in words) (D4 (FR-β)): significant uptake | internalized fraction (D4 (FR-β); 1 h incubation): 20% | uptake (D4 (FR-β); 1 h incubation): approximately 70% | uptake (D4 (FR-β); 3 h incubation): ~80% | uptake into RT16 cells (in words) (RT16 (FR-α)): significant uptake

CN1c2c(nc(N)[nH]c2=O)NC[C@H]1CNc1ccc(C(=O)N[C@@H](CCC(=O)O)C(=O)O)cc1 [Compound 6R-5-MTHF, 6R-5-MTHF, reference compound]
IC50 (FR-α; [12]): 25.8 ± 5.8 nM

Nc1nc2ncc(CNc3ccc(C(=O)N[C@@H](CCC(=O)O)C(=O)O)c(F)n3)nc2c(=O)[nH]1 [3′-aza-2′-[^18F]fluorofolic acid, reference compound]
IC50 (FR-α; [12]): 1.4 ± 0.5 nM

CN1c2c(nc(N)[nH]c2=O)NC[C@H]1CNc1ccc(C(=O)N[C@@H](CCC(=O)O)C(=O)O)c(F)n1 [Compound 6S-1, 6S-3′-Aza-2′-Fluoro-5-Methyltetrahydrofolate]
IC50 (FR-α): 23.8 ± 4 nM | fold lower affinity to the FR-α compared to the oxidized form (FR-α): about 17 fold

CN1c2c([nH]c(N)nc2=O)NC[C@@H]1CNc1ccc(C(=O)N[C@@H](CCC(=O)O)C(=O)O)cc1 [Compound 6S-5-MTHF, 6S-5-MTHF, reference compound]
IC50 (FR-α; [12]): 20.6 ± 0.4 nM

CN1c2c(nc(N)[nH]c2=O)NCC1CNc1ccc(C(=O)NC(CCC(=O)O)C(=O)O)c(F)n1 (stereo not drawn) [Compound 6R-1, 6R-3′-Aza-2′-Fluoro-5-Methyltetrahydrofolate]
IC50 (FR-α): 27.1 ± 3.7 nM | fold lower affinity to the FR-α compared to the oxidized form (FR-α): about 17 fold
